Experimental data reported in patent publication US20250090510A1, “eIF4G1-eIF1 INHIBITORS AND USE THEREOF” (YEDA RESEARCH AND DEVELOPMENT CO. LTD., priority 2022, published 2025).

What was measured:
[1] = molecular target: rabbit reticulocyte lysate; test: In-vitro translation of capped firefly luciferase mRNA; format: biochemical; conditions: 10 minutes pre-incubation, 90 minutes at 30° C.
[2] = tested on: Plasmodium falciparum NF54 strain; test: Parasitemia assay in blood cultures; format: cell-based; conditions: i14G1-10 20 uM, i14G1-12 10 uM; 1 hour, wash, measured 24 hours later
Method: FIGS. 8A-B: (8A) Bar graph of percent parasitemia in blood samples treated with i14G1-10 (20 μM) and i14G1-12 (10 μM) for 1 hour. DMSO treatment was used as a negative control. *=pVal; <0.05, ***=pVal<0.001 (8B) Photograph of a western blot and corresponding gel total protein staining of P. falciparum blood cultures treated with the inhibitors with or without the addition of puromycin. DMSO treatment and untreated cultures were used as a negative control.
From the same flask with -3-4% parasitemia, parasites were plated at 5 ml/well into six well-plates. To the trophozoite stage of development, i14G1-10, i14G1-12, or DMSO, were added and incubated at 37° C. with shaking. After one hour of incubation, from each sample, 1 ml of culture was taken. […]
The next day, the parasitemia (the number of iRBCs divided by the number of total RBCs) was measured by microscopy. The gold-standard method for identifying and quantifying malaria parasites as disclosed in Murphy et al., 2013, “Malaria diagnostics in clinical trials.” Am J Trop Med Hyg., 89(5):824-39, herein incorporated by reference in its entirety, was used. […] Infected RBCs were quantified by eye. No less than 30 fields of view were counted to find the final parasitemia percent.
Parasitaemia levels were measured 24 hours later.

HEK293T cells = test: Cell cycle analysis, propidium iodide flow cytometry; format: cell-based, human; conditions: i14G1-10 20 uM, 16 hours; for cells in S phase / sub-G1 dead cells: i14G1-12 1 uM
Method: FIGS. 3A-F: i14G1-10 and i14G1-12 inhibit mRNA translation and sensitize cell survival of eIF4G1 and eIF1 depleted cells. (3A) In-vitro translation using rabbit reticulocyte lysate which was pre-incubated with different concentrations of i14G1-10 or i14G1-12 for 10 minutes followed by the addition of capped firefly luciferase mRNA. After 90 minutes at 30° C., the luminescence signal was measured and the IC50 was calculated. The data represents mean±SEM of 6 independent repeats. (3B) HEK293T cells were treated with DMSO (vehicle control), and sub-cytotoxic concentrations of i14G1-10 (20 μM) and i14G1-12 (10 μM) for 3h. Cell lysates were then subjected to sucrose gradient sedimentation to obtain polysome profiles. (3C) HEK293T cells were treated with the indicated concentrations of i14G1-10 and i14G-12 for 3 h, followed by the addition of puromycin (10 μg/ml) for 5 minutes, after which cells were lysed and analyzed by western blot using an anti-puromycin antibody and anti-GAPDH antibody that serves as a loading control. The graph represents the mean±SEM chemiluminescence signal intensity of puromycin labeling normalized to GAPDH of 3 independent experiments. The calculated IC-50 is shown. (3D) HEK293T cells were transfected with either control or eIF4G1 siRNA in the absence or presence of eIF4G1 expression plasmid. As the eIF4G1 siRNA pool is directed against the 3′UTR, which is absent from the eIF4G1 expression plasmid, the exogenous eIF4G1 is resistant to the siRNA. 48 h after transfection, cells were treated with the indicated concentrations of i14G1-10 and i14G-12 for 3 h, followed by a 5 minutes puromycin pulse as described in 3C. The graph represents the mean±SEM chemiluminescence signal intensity of puromycin labeling normalized to GAPDH of 3 independent experiments. The calculated IC-50 is shown. (3E) The graphs represent cell viability of the indicated cell lines in the presence of increasing concentrations of i14G1-10 and i14G1, analyzed by Luminescent Cell Viability Assay. (3F) Pie charts showing the cell cycle distribution of HEK293T cells treated with DMSO, i14G1-10 and i14G1-12.
Cell cycle and cell viability analyses. HEK293T were treated with DMSO, i14G1-10 (20 uM) and i14G1-12 (1 uM) for 16 hours and then were trypsinized, washed twice with ice cold PBS and fixed overnight in 70% ethanol. Then cells were washed twice with ice cold PBS and resuspended in staining buffer (0.1% triton X-100, 2 mg RNase A and […]), and incubated at 37° C. for 15 minutes. Cells were monitored by BC LSRII flow cytometer and data was analyzed using Modfit Lt Software.
This was true in breast cancer (MCF7), lung cancer (A549), colorectal cancer (HCT116), ovarian cancer (OVCAR8) and in a bone cancer sarcoma cell line (U20S). To examine whether the growth defect is associated with cell cycle progression, control and drug treated cells were subjected to DNA staining by propidium iodide and then a flow cytometry analysis to determine their distribution in the sub-G1 (dead cells), G1, S and G2/M phases of the cell cycle.

| Structure (SMILES) | IC50 [1] [µM] | reduction of parasite levels (parasitaemia) [2] [%] | cells in G2/M phase of the cell cycle (HEK293T cells) | cells in S phase (HEK293T cells) | sub-G1 dead cells (HEK293T cells) |
| --- | --- | --- | --- | --- | --- |
| O=C(/C=C/Sc1ccc(C(F)(F)F)cn1)c1ccccc1 [i14G1-10] | 5.44 | 42 | dramatic accumulation of cells in the G2/M phase | reduction in S | elevation in sub-G1 dead cells |
| Cn1ccnc1S/C(=C/C=C(C#N)C#N)c1ccc(Cl)cc1 [i14G1-12] | 4.14 | 69 |  | reduction in S | elevation in sub-G1 dead cells |
